In patent publication US6914045B2, “Glycopeptide antibiotics” (Wyeth Holdings Corporation, priority 2001, dated 2005):
Values after ≈ are worked out from the molar mass of the structure shown. Where two headings read alike, the source gives them in different places. Each block holds one molecule with its values, some of them ahead of it. Numbered stars: 1 amine (or outer) side, 2 acyl side, 3 side chain; on linkers, the order of the positions; unused ones are H or OH. Square brackets hold non-standard residues; d marks the D form. Peptide text beside a SMILES is read from it. ξ: configuration not given here. X1 = N=C1NCC(C(O)C(N[*:1])C(=O)[*:2])N1C1OC(CO)C(O)C(O)C1O; ξEnduracididine(βξ-OH,4'ξ) = N=C1NCC(C(O)C(N)C(=O)O)N1; Tyr(3,5-Br2) = N[CH](Cc1cc(Br)c(O)c(Br)c1)C(=O)O; ξPhe(βξ-Me) = CC(c1ccccc1)C(N)C(=O)O

Assays:
Test in all cases: in vitro antibacterial evaluation, MIC by broth dilution
Assay type in all cases: cell-based
Escherichia coli = test system: Escherichia coli
Method in brief: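 MIC is the lowest antibiotic concentration (tested 64-0.06 μg/mL) preventing growth of a 5×10^5 CFU/mL inoculum. Determined by broth dilution in Mueller-Hinton II medium following NCCLS standard M7-A2.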

Staphylococcus sp. = test system: Staphylococcus sp.
Method in brief: (§1)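 MIC, the lowest antibiotic concentration preventing growth, was read across 64-0.06 μg/mL with 5×10^5 CFU/mL inoculum. Method followed NCCLS M7-A2 broth dilution using Mueller-Hinton II; Gram-positive strains covered recent methicillin-, penicillin- and/or vancomycin-resistant clinical isolates.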

Streptococcus sp. = test system: Streptococcus sp.
Method in brief: as §1

Enterococcus sp. = test system: Enterococcus sp.
Method in brief: as §1

MIC Escherichia coli (ATCC 25922) (Escherichia coli; strain ATCC 25922, broth dilution, 18 hours at 35° C.): >128 µg/mL
MIC Escherichia coli (GC 4559) (Escherichia coli; strain GC 4559, broth dilution, 18 hours at 35° C.): >128 µg/mL
MIC Escherichia coli (GC 4560) (Escherichia coli; strain GC 4560, broth dilution, 18 hours at 35° C.): 64 µg/mL (≈ 56.7 µM)
MIC Staphylococcus aureus (ATCC 29213) (Staphylococcus sp.; strain ATCC 29213, broth dilution, 18 hours at 35° C.): >128 µg/mL
MIC Staphylococcus aureus (GC 1131) (Staphylococcus sp.; strain GC 1131, broth dilution, 18 hours at 35° C.): >128 µg/mL
MIC Staphylococcus aureus (GC 4541) (Staphylococcus sp.; strain GC 4541, broth dilution, 18 hours at 35° C.): >128 µg/mL
MIC Staphylococcus aureus (GC 4542) (Staphylococcus sp.; strain GC 4542, broth dilution, 18 hours at 35° C.): >128 µg/mL
MIC Staphylococcus aureus-SMITH (GC 4543) (Staphylococcus sp.; strain GC 4543, broth dilution, 18 hours at 35° C.): >128 µg/mL
MIC Staphylococcus aureus (GC 4544) (Staphylococcus sp.; strain GC 4544, broth dilution, 18 hours at 35° C.): >128 µg/mL
MIC Staphylococcus aureus (GC 4545) (Staphylococcus sp.; strain GC 4545, broth dilution, 18 hours at 35° C.): >128 µg/mL
MIC Coagulase Negative Staphylococcus (GC 4547) (Staphylococcus sp.; strain GC 4547, broth dilution, 18 hours at 35° C.): >128 µg/mL
MIC Coagulase Negative Staphylococcus (GC 4548) (Staphylococcus sp.; strain GC 4548, broth dilution, 18 hours at 35° C.): >128 µg/mL
MIC Coagulase Negative Staphylococcus (GC 4549) (Staphylococcus sp.; strain GC 4549, broth dilution, 18 hours at 35° C.): 128 µg/mL (≈ 113 µM)
MIC Coagulase Negative Staphylococcus (GC 4551) (Staphylococcus sp.; strain GC 4551, broth dilution, 18 hours at 35° C.): >128 µg/mL
MIC Coagulase Negative Staphylococcus (ID-3941) (Staphylococcus sp.; strain ID-3941, broth dilution, 18 hours at 35° C.): 128 µg/mL (≈ 113 µM)
MIC Streptococcus agalactiae (GC 4564) (Streptococcus sp.; strain GC 4564, broth dilution, 18 hours at 35° C.): >128 µg/mL
MIC Streptococcus pneumoniae (GC 4565) (Streptococcus sp.; strain GC 4565, broth dilution, 18 hours at 35° C.): >128 µg/mL
MIC Streptococcus pyogenes (ID-3187) (Streptococcus sp.; strain ID-3187, broth dilution, 18 hours at 35° C.): >128 µg/mL
MIC Enterococcus faecalis (ATCC 29212) (Enterococcus sp.; strain ATCC 29212, broth dilution, 18 hours at 35° C.): >128 µg/mL
MIC Enterococcus faecalis (GC 2242) (Enterococcus sp.; strain GC 2242, broth dilution, 18 hours at 35° C.): >128 µg/mL
MIC Enterococcus faecium (GC 2243) (Enterococcus sp.; strain GC 2243, broth dilution, 18 hours at 35° C.): >128 µg/mL
MIC Enterococcus faecalis (GC 4552) (Enterococcus sp.; strain GC 4552, broth dilution, 18 hours at 35° C.): >128 µg/mL
MIC Enterococcus faecalis (GC 4553) (Enterococcus sp.; strain GC 4553, broth dilution, 18 hours at 35° C.): >128 µg/mL
MIC Enterococcus faecalis (GC 4554) (Enterococcus sp.; strain GC 4554, broth dilution, 18 hours at 35° C.): >128 µg/mL
MIC Enterococcus faecium (GC 4556) (Enterococcus sp.; strain GC 4556, broth dilution, 18 hours at 35° C.): >128 µg/mL
MIC Enterococcus faecium (GC 4557) (Enterococcus sp.; strain GC 4557, broth dilution, 18 hours at 35° C.): >128 µg/mL
MIC Enterococcus avium (GC 4558) (Enterococcus sp.; strain GC 4558, broth dilution, 18 hours at 35° C.): >128 µg/mL
SMILES: CC(c1ccccc1)C1NC(=O)CNC(=O)C(CO)NC(=O)C(C(O)C2CNC(=N)N2C2OC(CO)C(O)C(O)C2O)NC(=O)C(C(O)C2CNC(=N)N2)NC(=O)C(Cc2cc(Br)c(O)c(Br)c2)NC1=O (stereo not drawn) [Example 3, Cyclo[glycyl-β-methylphenylalanyl-3,5-dibromotyrosyl-3-(2-iminoimidazolidin-4-yl)seryl-3-(3-hexopyranosyl-2-iminoimidazolidin-4-yl)serylseryl]] (cyclo(G[ξPhe(βξ-Me)][Tyr(3,5-Br2)][ξEnduracididine(βξ-OH,4'ξ)][X1]S); configuration not given here)
MIC Staphylococcus haemolyticus (GC 4546) (Staphylococcus sp.; strain GC 4546, broth dilution, 18 hours at 35° C.): >128 µg/mL

SMILES: CC(C)=Cc1nc2cc(CC3NC(=O)C(C(C)c4ccccc4)NC(=O)CNC(=O)C(CO)NC(=O)C(C(O)C4CNC(=N)N4C4OC(CO)C(O)C(O)C4O)NC(=O)C(C(O)C4CNC(=N)N4)NC3=O)ccc2o1 (stereo not drawn) [Example 40, Cyclo[3-[2-(2-methylprop-1-en-1-yl)-1,3-benzoxazol-5-yl]alanyl-3-(2-iminoimidazolidin-4-yl)seryl-3-(3-hexopyranosyl-2-iminoimidazolidin-4-yl)serylserylglycyl-β-methylphenyl-alanyl]]
MIC Escherichia coli (ATCC 25922) (Escherichia coli): 32 µg/mL (≈ 30.5 µM)
MIC Escherichia coli (GC 4559) (Escherichia coli): 32 µg/mL (≈ 30.5 µM)
MIC Escherichia coli (GC 4560) (Escherichia coli): 16 µg/mL (≈ 15.2 µM)
MIC Coagulase Negative Staphylococcus (GC 4547) (Staphylococcus sp.): 16 µg/mL (≈ 15.2 µM)
MIC Coagulase Negative Staphylococcus (GC 4548) (Staphylococcus sp.): 32 µg/mL (≈ 30.5 µM)
MIC Coagulase Negative Staphylococcus (GC 4549) (Staphylococcus sp.): 16 µg/mL (≈ 15.2 µM)
MIC Coagulase Negative Staphylococcus (GC 4551) (Staphylococcus sp.): 32 µg/mL (≈ 30.5 µM)
MIC Coagulase Negative Staphylococcus (GC 6257) (Staphylococcus sp.): 16 µg/mL (≈ 15.2 µM)
MIC Staphylococcus aureus (ATCC 29213) (Staphylococcus sp.): 64 µg/mL (≈ 60.9 µM)
MIC Staphylococcus aureus (GC 1131) (Staphylococcus sp.): 64 µg/mL (≈ 60.9 µM)
MIC Staphylococcus aureus (GC 3051) (Staphylococcus sp.): 64 µg/mL (≈ 60.9 µM)
MIC Staphylococcus aureus (GC 3053) (Staphylococcus sp.): 64 µg/mL (≈ 60.9 µM)
MIC Staphylococcus aureus (GC 4541) (Staphylococcus sp.): 64 µg/mL (≈ 60.9 µM)
MIC Staphylococcus aureus (GC 4542) (Staphylococcus sp.): 64 µg/mL (≈ 60.9 µM)
MIC Staphylococcus aureus (GC 4544) (Staphylococcus sp.): 32 µg/mL (≈ 30.5 µM)
MIC Staphylococcus aureus (GC 4545) (Staphylococcus sp.): 32 µg/mL (≈ 30.5 µM)
MIC Staphylococcus aureus-SMITH (GC 4543) (Staphylococcus sp.): 64 µg/mL (≈ 60.9 µM)
MIC Staphylococcus haemolyticus (GC 4546) (Staphylococcus sp.): 16 µg/mL (≈ 15.2 µM)
MIC Streptococcus agalactiae (GC 4564) (Streptococcus sp.): 64 µg/mL (≈ 60.9 µM)
MIC Streptococcus pneumoniae (ATCC 6301) (Streptococcus sp.): 64 µg/mL (≈ 60.9 µM)
MIC Streptococcus pneumoniae (GC 1894) (Streptococcus sp.): 32 µg/mL (≈ 30.5 µM)
MIC Streptococcus pneumoniae (GC 4565) (Streptococcus sp.): 128 µg/mL (≈ 122 µM)
MIC Streptococcus pyogenes (GC 4563) (Streptococcus sp.): 32 µg/mL (≈ 30.5 µM)
MIC Enterococcus avium (GC 4558) (Enterococcus sp.): 64 µg/mL (≈ 60.9 µM)
MIC Enterococcus faecalis (ATCC 29212) (Enterococcus sp.): 128 µg/mL (≈ 122 µM)
MIC Enterococcus faecalis (GC 2242) (Enterococcus sp.): 128 µg/mL (≈ 122 µM)
MIC Enterococcus faecalis (GC 2691) (Enterococcus sp.): 128 µg/mL (≈ 122 µM)
MIC Enterococcus faecalis (GC 3059) (Enterococcus sp.): >128 µg/mL
MIC Enterococcus faecalis (GC 4552) (Enterococcus sp.): >128 µg/mL
MIC Enterococcus faecalis (GC 4553) (Enterococcus sp.): 64 µg/mL (≈ 60.9 µM)
MIC Enterococcus faecalis (GC 4554) (Enterococcus sp.): >128 µg/mL
MIC Enterococcus faecalis (GC 6189) (Enterococcus sp.): 128 µg/mL (≈ 122 µM)
MIC Enterococcus faecium (GC 2243) (Enterococcus sp.): 64 µg/mL (≈ 60.9 µM)
MIC Enterococcus faecium (GC 4556) (Enterococcus sp.): 128 µg/mL (≈ 122 µM)
MIC Enterococcus faecium (GC 4557) (Enterococcus sp.): 16 µg/mL (≈ 15.2 µM)
